Reference: PMC7081834 (Science (New York, N.Y.), 2019)

Target: WWP1 (WW domain–containing ubiquitin E3 ligase 1) (Homo sapiens, UniProt Q9H0M0, F577A/Y656A)
Test: microscale thermophoresis
Type: binding

Chain of WWP1 (WW domain–containing ubiquitin E3 ligase 1) (Q9H0M0 546-922 F577A/Y656A limits assumed): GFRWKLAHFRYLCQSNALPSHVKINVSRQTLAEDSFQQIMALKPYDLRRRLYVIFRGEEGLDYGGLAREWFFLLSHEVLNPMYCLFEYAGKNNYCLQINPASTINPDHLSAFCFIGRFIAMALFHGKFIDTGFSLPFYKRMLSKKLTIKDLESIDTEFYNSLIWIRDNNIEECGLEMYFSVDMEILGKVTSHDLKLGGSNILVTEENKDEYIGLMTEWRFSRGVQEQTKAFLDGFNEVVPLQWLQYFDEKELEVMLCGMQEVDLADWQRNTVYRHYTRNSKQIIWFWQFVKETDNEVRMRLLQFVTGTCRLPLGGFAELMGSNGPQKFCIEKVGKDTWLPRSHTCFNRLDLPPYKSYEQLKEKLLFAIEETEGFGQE

OCc1c[nH]c2ccccc12 [I3C, indole-3-carbinol]
Kd: ~7.72 µM
